Source: US20110224147A1, “METHODS AND COMPOSITIONS” (Relevare Aust. Pyt. Ltd., priority 2008, published 2011)
Marks after values point to notes of the source that are not given here.

What was measured:
[1] = system: carrageenan-induced hyperalgesia; experiment: Carrageenan paw inflammation test (paw withdrawal latency, noxious heat); type: in vivo, rat; conditions: for antinociception, significance vs vehicle controls: p>0.05
Procedure: (§1) All experiments were performed on male Wistar rats, weight 170-220 g for experiments investigating sedation and antinociception using the carrageenan inflammation paradigm and weight 120-200 g for experiments evaluating sedation and antinociception using the diabetic neuropathy model. The experiments were performed in an observer-blinded fashion with parallel positive placebo (gabapentin) and negative placebo (vehicle) treatment controls. All drug solutions and vehicle were given intraperitoneally (ip) in a volume of 1.0 ml.
Two tests for antinociception were used: the carrageenan paw inflammation test; and the streptozotocin-induced diabetic neuropathy model. Inflammation of the right hind paw was induced by an intraplantar injection of carrageenan (100 μl of a 2% w/v carrageenan solution in saline). Time was allowed for paw inflammation to develop (2 hours). Paw withdrawal latencies were measured using noxious heat from an infrared beam focused onto the plantar surface of the right hind paw in unrestrained animals using apparatus from Ugo Basile (via G. Borghi 43, 21025 Comerio VA—Italy). The method used was originally described by Hargreaves et al, Pain 32:77-88, 1988.
Paw withdrawal latencies were measured at 10 min intervals before the induction of inflammation with carrageenan injection until 3 stable baseline readings were obtained (baseline readings—see FIG. 1). […] A test drug or drug combination was injected intraperitoneally and paw withdrawal values were measured at 10-minute intervals for the following 30 minutes (test drug readings—see FIG. 1).
The following drug treatments were given ip to separate groups of rats: • vehicle controls, n=63 • CNSB002 at dose range 0.5 mg/kg to 10 mg/kg alone, n=14 each • morphine at dose range 0.2 mg/kg to 3.2 mg/kg alone, n=10 each • combinations of CNSB002 at 5 mg/kg with morphine at 0.2, 0.4, 0.8, 1.6 and 3.2 mg/kg, n=10 each • gabapentin alone at 50 mg/kg, n=20 • combination of gabapentin at 50 mg/kg with morphine 3.2 mg/kg, n=20
Drug and placebo/vehicle treatments were compared statistically using ANOVA with Tukey-Kramer post hoc test.

[2] = system: diabetic rats; experiment: Open field activity monitor (sedation), diabetic rats
Procedure: as §1
(§2) Measurement of the movements of a freely moving rat in an open field activity monitor was used. […] The maximum non-sedating doses of each compound alone and in combination were first determined in normal rats and then those doses were tested for sedation in diabetic rats. This was done to be sure that there was no sedation caused by the drugs, particularly in diabetics that are known to be more susceptible to CNS depressants.
(§3) The open field activity monitor (MedAssociates Inc. St. Albans, Vt. 05478, USA) is an enclosure with a quiet and darkened environment. It contains 16 intersecting beams of infrared light. Interruptions of beams by individual rats moving around the enclosure were recorded by computer. These measurements were converted to the total rest time in seconds during a 20 min period in the apparatus. Rest times of drug-treated rats were compared with vehicle-treated controls using ANOVA with Dunnet post hoc test.
(§4) Animals naïve to drug treatment were acclimatized to the lab environment and individual rats were selected randomly from a group one at a time. They were injected (ip) with vehicle, a test drug dose or a combination of drugs in an operator-blinded fashion. Five minutes after the ip injection each rat was placed in the open field activity monitor for a 20-min period.
(§5) Groups of rats were tested with the open field activity monitor as above with the following ip treatments: • vehicle controls, n=121 experiments • CNSB002 at doses 10 and 20 mg/kg, n=20 and 10 experiments • morphine at doses 6.4 and 3.2 mg/kg, n=21 and 20 experiments • a combination of CNSB002 at 10 mg/kg with morphine at 3.2 mg/kg, n=21 experiments • a combination of CNSB002 at 5.0 mg/kg with morphine at 3.2 mg/kg, n=19 experiments • gabapentin at doses of 100 and 50 mg/kg, n=26 each experiments • a combination of GABApentin at 50 mg/kg with morphine at 3.2 mg/kg, n=19 experiments
Rats were injected ip with streptozotocin (STZ; […] total dose) dissolved in 0.9% w/v sodium chloride solution. The 150 mg dose was given in two 75 mg/kg injections on consecutive days. Diabetes was confirmed one week after injection of STZ by measurement of tail vein blood glucose levels with AccuCheck Active test strips and a reflectance colorimeter (AccuCheck Glucometer, Roche). Only animals with final blood glucose levels ≧15 mM were deemed to be diabetic. The rats were retested for hyperglycaemia once per week to confirm continued high blood glucose readings. Hyperalgesia was assessed by measurement of paw flick latency using the radiant heat plantar test described previously by Hargreaves et al, 1988 supra.

[3] = system: normal rats; experiment: Open field activity monitor (sedation), normal rats
Procedure: as §1, §2, §3, §4, §5

[4] = system: hyperalgesia caused by STZ-induced diabetic neuropathy; experiment: Streptozotocin-induced diabetic neuropathy model (paw flick latency, radiant heat plantar test); type: in vivo, rat; conditions: diabetic rats
[5] = male, Wistar, rat, in vivo, ip, 10 mg/kg, 20 min
[6] = CNSB002 10 mg/kg ip alone, p<0.01
[7] = gabapentin 50 mg/kg ip alone, p<0.01
[8] = morphine 3.2 mg/kg ip alone, p<0.05

## CC(C)(C)c1cc(CN2CCN(CC(O)c3ccc(Cl)cc3)CC2)cc(C(C)(C)C)c1O (stereo not shown) [CNSB002, 1-(2-(4-chlorophenyl)-2-hydroxy)ethyl-4-(3,5-bis(1,1-dimethyl)-4-hydroxyphenyl)methylpiperazine]
[1]; CNSB002 5 mg/kg ip alone
  reversal of carrageenan-induced hyperalgesia: 35%
[1]; CNSB002 10 mg/kg ip alone
  reversal of carrageenan-induced hyperalgesia: 35%
[1]; CNSB002 0.5-10 mg/kg ip alone
  antinociception, significance vs vehicle controls: No dose of gabapentin or CNSB002 administered alone caused statistically-significant antinociception
[1]; CNSB002 5 or 10 mg/kg ip alone
  antinociception compared with CNSB002 at 0.5 mg/kg: significantly greater
[2]; [5]
  total rest time during a 20 min period (mean): 1005.6 s
[2]; rat, in vivo, ip, 10 mg/kg
  sedation vs vehicle controls: not sedating
[3]; [5]
  total rest time during a 20 min period (mean): 851.2 s
[3]; male, Wistar, rat, in vivo, ip, 20 mg/kg, 20 min
  total rest time during a 20 min period (mean): 1001.2* seconds
[3]; rat, in vivo, ip, 10 mg/kg
  sedation vs vehicle controls: did not cause sedation
[3]; rat, in vivo, ip, 20 mg/kg
  sedation vs vehicle controls: sedating
[4]; CNSB002 10 mg/kg ip alone, not vs 5 mg/kg
  antinociception compared with CNSB002 at 0.5, 1.0 and 2.5 mg/kg: significantly greater
[4]; [6]
  antinociception, significance vs vehicle controls: significant antinociceptive effect
  reversal of hyperalgesia: 26%
[4]; CNSB002 doses other than 10 mg/kg (0.5-5 mg/kg) ip alone
  antinociception, significance vs vehicle controls: No other doses of CNSB002 administered alone caused significant antinociception

## NCC1(CC(=O)O)CCCCC1 [gabapentin]
[1]; gabapentin 50 mg/kg ip alone
  antinociception, significance vs vehicle controls: No dose of gabapentin or CNSB002 administered alone caused statistically-significant antinociception
[2]; diabetic rats, gabapentin 50 mg/kg ip alone, Table 2A
  total rest time during a 20 min period (mean): 985.8 s
[2]; diabetic rats, gabapentin 50 mg/kg ip alone, p>0.05
  sedation vs vehicle controls: not sedating
[2]; diabetic rats, gabapentin 100 mg/kg ip alone, Table 2A
  total rest time during a 20 min period (mean): 941.2 s
[2]; diabetic rats, gabapentin 100 mg/kg ip alone, p>0.05
  sedation vs vehicle controls: not sedating
[3]; normal rats, gabapentin 50 mg/kg ip alone, Table 1C
  total rest time during a 20 min period (mean): 753.0 s
[3]; normal rats, gabapentin 50 mg/kg ip alone, p>0.05
  sedation vs vehicle controls: did not cause sedation
[3]; normal rats, gabapentin 100 mg/kg ip alone, Table 1C
  total rest time during a 20 min period (mean): 881.6* seconds
[3]; normal rats, gabapentin 100 mg/kg ip alone, p<0.01
  sedation vs vehicle controls: caused significant sedation
[4]; [7]
  antinociception, significance vs vehicle controls: equally significant antinociception
  reversal of hyperalgesia: 26%

## CN1CC[C@]23c4c5ccc(O)c4O[C@H]2[C@@H](O)C=C[C@H]3[C@H]1C5 [morphine]
[1]; morphine 3.2 mg/kg ip alone
  reversal of carrageenan-induced hyperalgesia: 24%
[1]; morphine 0.2-3.2 mg/kg ip alone
  antinociception, significance vs vehicle controls: caused no significant antinociception
[2]; diabetic rats, morphine 3.2 mg/kg ip alone, Table 2A
  total rest time during a 20 min period (mean): 943.6 s
[2]; diabetic rats, morphine 3.2 mg/kg ip alone, p>0.05
  sedation vs vehicle controls: not sedating
[2]; diabetic rats, morphine 6.4 mg/kg ip alone, Table 2B
  total rest time during a 20 min period (mean): 972.6* seconds
[2]; diabetic rats, morphine 6.4 mg/kg ip alone, p<0.01
  sedation vs vehicle controls: caused sedation
[3]; normal rats, doses of morphine up to 6.4 mg/kg ip
  sedation vs vehicle controls: sedation was not caused
[3]; normal rats, morphine 3.2 mg/kg ip alone, Table 1B
  total rest time during a 20 min period (mean): 961.0 s
[3]; normal rats, morphine 3.2 mg/kg ip alone, p>0.05 unpaired t test
  sedation vs vehicle controls: did not cause sedation
[4]; [8]
  antinociception, significance vs vehicle controls: significant antinociceptive effect
  reversal of hyperalgesia: 30%
[4]; morphine alone ip, doses below the highest dose 3.2 mg/kg, p>0.05
  antinociception, significance vs vehicle controls: No dose of morphine alone caused significant antinociception
